From patent US20220256847A1, “CELL DEATH INHIBITOR AND CELL DEATH INHIBITION METHOD” (UNIVERSITY OF TSUKUBA, priority 2019, published 2022)

Assays:
Assay type in all cases: in vivo
[1] = system: leaves of Nicotiana benthamiana; experiment: Observation of gangrene (cell death induced by transient protein expression) in leaves after agroinfiltration and spraying of the substance
Experimental: Nicotiana benthamiana was grown for 5 to 6 weeks under conditions of 25° C. and 16 hours in light and 8 hours in the dark. Each of the above-described vectors was introduced into an Agrobacterium tumefaciens GV3101 strain having a binary vector, and it was cultured at 28° C. until the stationary phase in L broth medium supplemented with 20 μM acetosyringone, 50 mg/L kanamycin, 30 mg/L gentamicin, and 30 mg/L rifampicin at 10 mM MES (pH 5.6).
Then, the culture solution was centrifuged to recover the Agrobacterium tumefaciens, and then suspended such that OD600 was approximately 1 by using an infiltration buffer (10 mM magnesium chloride, 10 mM MES, (pH 5.6), and 100 μM acetosyringone). The Agrobacterium tumefaciens was then left in this liquid for 2 to 3 hours.
After this, the suspension of Agrobacterium tumefaciens was infiltrated on the underside of the leaves of Nicotiana benthamiana by using a 1 mL syringe without a needle. Alternatively, in some cases, Nicotiana benthamiana was immersed in the Agrobacterium suspension (agroinfiltration liquid), and vacuum infiltrated by leaving it under a pressure of 736 mmHg for 5 minutes, and then bringing the pressure back to atmospheric pressure.
In addition, in some experiments, sodium ascorbate was added to the infiltration buffer. Expression induction of heat shock protein was performed by incubating the plant for 1 hour at 37° C. one day and three days after the infiltration. In the following Example, sodium L-ascorbate was used as sodium ascorbate.
Agroinfiltration using a syringe was performed to express GFP, hCu1, hFbxw7, PLP-GFP, and Cryj1 in the leaves of Nicotiana benthamiana. In the expression of PLP-GFP, a 1/100 amount of pBYR2HS-EGFP was simultaneously agroinfitrated. Each plant was cultured at 18° C. for seven days after agroinfiltration. In addition, 0, 30, 50, 100, 200, and 300 mM aqueous solutions of sodium ascorbate were sprayed once every two days.
The scale bar indicates 1 cm. […] In (a) to (f), the region surrounded by the dotted circle is a region expressing GFP, hCu1, hFbxw7, PLP-GFP, and Cryj1, respectively.
Agroinfiltration using a syringe was performed to express each of GFP, hCu1, and hFbxw7 in the leaves of Nicotiana benthamiana. Each plant was cultured at 25° C. for seven days after agroinfiltration. In addition, a 0 or 200 mM aqueous solution of sodium ascorbate was sprayed once every two days. The present Example was mainly different from Example 1 in the growth temperatures of the plant.
The scale bar indicates 1 cm.
Each plant was cultured at 18° C. for seven days after agroinfiltration.
Specifically, Nicotiana benthamiana was immersed in the agroinfiltration liquid, and vacuum infiltrated by leaving it under a pressure of 736 mmHg for 5 minutes, and then bringing the pressure back to atmospheric pressure, and thus the hFbxw7 protein was expressed. Each plant was cultured at 20° C. for seven days after agroinfiltration. In addition, 1 mM of each endoplasmic reticulum stress inhibitor was sprayed one day and three days after agroinfiltration.

[2] = system: hFbxw7 protein expressed in the leaves of Nicotiana benthamiana; experiment: hFbxw7 protein expression, Western blotting with anti-FLAG antibody; conditions: Example 2: 200 mM spray; 25° C.; three days after agroinfiltration
From the text: The soluble protein was extracted from the region where the hFbxw7 protein was expressed in the leaves of each plant three days after agroinfiltration. The prepared soluble protein was then subjected to SDS-PAGE and transferred to a PVDF membrane. As described above, a FLAG tag was attached to the N-terminus of the hFbxw7 protein. Here, the hFbxw7 protein was detected by Western blotting with an anti-FLAG antibody. FIG. 9 is a photograph showing the results of Western blotting. FIG. 9 also illustrates the results of CBB staining. In FIG. 9, “NT” indicates the results of the leaves of Nicotiana benthamiana without gene introduction, and “FW” indicates fresh weight. In addition, “Mock” indicates the result of not spraying an aqueous solution of sodium ascorbate, and “AsA” indicates the result of spraying a 200 mM aqueous solution of sodium ascorbate. In addition, the band indicated by the arrowhead indicates the band of the hFbxw7 protein. In addition, “RbcL” indicates the Rubisco large subunit.

[3] = system: PLP-GFP protein expressed in the leaves of Nicotiana benthamiana; experiment: PLP-GFP protein expression level, Western blotting with anti-GFP antibody; conditions: Example 1: spray, concentration of 100 mM or higher, once every two days; 18° C., seven days
Experimental: The soluble protein was then extracted from the region where the PLP-GFP protein was expressed in the leaves of each plant. The prepared soluble protein was then subjected to SDS-PAGE and transferred to a PVDF membrane. For comparison, 100 ng, 200 ng, and 300 ng of purified GFP proteins were also subjected to SDS-PAGE and transferred to a PVDF membrane. Then, the PLP-GFP protein was detected by Western blotting with an anti-GFP antibody. FIG. 5A is a photograph showing the results of Western blotting. In FIG. 5A, “NT” indicates the results of the leaves of Nicotiana benthamiana without gene introduction, and “FW” indicates fresh weight. In FIG. 5A, the band indicated by the arrowhead indicates the band of the PLP-GFP protein. In addition, the band near 30 kDa is the band of the GFP protein. FIG. 5B is a graph showing the results of quantifying an expression level of the PLP-GFP protein based on FIG. 5A.

[4] = system: hCu1 protein expressed in the leaves of Nicotiana benthamiana; experiment: hCu1 protein expression level, Western blotting with anti-FLAG antibody
From the text: (§1) The soluble protein was then extracted from the region where the hCu1 protein was expressed in the leaves of each plant. The prepared soluble protein was then subjected to SDS-PAGE and transferred to a PVDF membrane. As described above, a FLAG tag was attached to the N-terminus of the hCu1 protein. Here, the hCu1 protein was detected by Western blotting with an anti-FLAG antibody.
FIG. 4A is a photograph showing the results of Western blotting. In FIG. 4A, “NT” indicates the results of the leaves of Nicotiana benthamiana without gene introduction, and “FW” indicates fresh weight. In FIG. 4A, the band indicated by the arrowhead indicates the band of the hCu1 protein. FIG. 4B is a graph showing the results of quantifying the expression level of the hCu1 protein based on FIG. 4A. […]
as §1, with “the” for “the region where the hCu1 protein was expressed in the”, “plant seven days after agroinfiltration.” for “plant.”
FIG. 13A is a photograph showing the results of Western blotting, and also illustrates the results of CBB staining. In FIG. 13A, “NT” indicates the results of the leaves of Nicotiana benthamiana without gene introduction, and “FW” indicates fresh weight. In addition, “vacuum” indicates the result of performing the vacuum infiltration, and “spray” indicates the result of spraying an aqueous solution of sodium ascorbate without adding sodium ascorbate to the agroinfiltration liquid. In addition, the band indicated by the arrowhead indicates the band of the hCu1 protein. In addition, “RbcL” indicates the Rubisco large subunit.
FIG. 13B is a graph showing the results of quantifying the expression level of the hCu1 protein based on FIG. 13A. In FIG. 13B, “vacuum” and “spray” indicate the same meaning as those in FIG. 13A.

[5] = system: Nicotiana benthamiana; experiment: Observation of gangrene after adding the substance to the agroinfiltration liquid (vacuum infiltration); conditions: hCu1, 25° C., seven days
Experimental: (§2) Sodium ascorbate was added to the agroinfiltration liquid to examine whether gangrene can be inhibited. Specifically, Nicotiana benthamiana was immersed in the agroinfiltration liquid, and vacuum infiltrated by leaving it under a pressure of 736 mmHg for 5 minutes, and then bringing the pressure back to atmospheric pressure, and thus the hCu1 protein was expressed. Here, sodium ascorbate having a final concentration of 80 mM, 100 mM, or 200 mM was added to the agroinfiltration liquid. Each plant was cultured at 25° C. for seven days after agroinfiltration.
In (a) to (c), “vacuum” indicates the results of vacuum infiltration.
as §2, with “0, 10, 20, 30,” for “80 mM, 100 mM,”, “40” for “200”, “liquid.” for “liquid. Each plant was cultured at 25° C. for seven days after agroinfiltration.”
Sodium ascorbate was administered only once at the time of agroinfiltration. […]

[6] = system: Cryj1 protein expressed in the leaves of Nicotiana benthamiana; experiment: Cryj1 protein expression, Western blotting with anti-Cryj1 antibody; conditions: Example 8: 200 mM spray once every two days; vacuum infiltration; 24° C. or 20° C., seven days
Experimental: Nicotiana benthamiana was immersed in the agroinfiltration liquid, and vacuum infiltrated by leaving it under a pressure of 736 mmHg for 5 minutes, and then by bringing the pressure back to atmospheric pressure, and thus the Cryj1 protein was expressed. Each plant was cultured at 24° C. or 20° C. for seven days after agroinfiltration. In addition, a 0 mM or 200 mM aqueous solution of sodium ascorbate was sprayed once every two days.
The soluble protein was then extracted from the leaves of each plant seven days after agroinfiltration. The prepared soluble protein was then subjected to SDS-PAGE and transferred to a PVDF membrane. Then, the Cryj1 protein was detected by Western blotting with an anti-Cryj1 antibody.
FIG. 18A is a photograph showing the results of Western blotting. In FIG. 18B, “P” indicates the result of SDS-PAGE and Western blotting of the Cryj1 protein derived from a natural product as a positive control, “M” indicates a molecular weight marker, “WT” indicates the result of the leaves of Nicotiana benthamiana without gene introduction, “24° C.” indicates the result of culturing at 24° C., “20° C.” indicates the result of culturing at 20° C., and “+AsA” indicates the result of spraying a 200 mM aqueous solution of sodium ascorbate once every two days.

[7] = system: GFP protein expressed in the leaves of Nicotiana benthamiana; experiment: GFP protein expression level, SDS-PAGE and CBB staining of soluble leaf protein
[8] = Example 1: spray, concentration of 100 mM or higher, once every two days, 18° C., seven days

Row | SMILES | gangrene (cell death induced by transient protein expression) ([1]; Example 1: sprayed with 100, 200 and 300 mM aqueous solutions once every two days, 18° C., seven days after agroinfiltration, hCu1, hFbxw7, PLP-GFP, Cryj1 regions) | gangrene ([1]; Example 2: 200 mM spray once every two days, 25° C., seven days after agroinfiltration, GFP, hCu1, hFbxw7) | gangrene in GFP-expressing leaves ([1]; Example 2: 200 mM spray, 25° C., culturing continued for seven days after agroinfiltration) | expression of the hFbxw7 protein [2] | expression level of the PLP-GFP protein [3] | expression level of the hCu1 protein [4, 8] | peak in the expression level of the hCu1 protein ([4]; Example 1: spray, concentration of 200 mM or higher, 18° C., seven days) | expression of the hCu1 protein ([4]; Example 2: 200 mM spray, 25° C., seven days after agroinfiltration) | expression level of the hCu1 protein, time of peak ([4]; Example 2: 200 mM spray, 25° C., three days after agroinfiltration) | expression of the hCu1 protein ([4]; Example 4: final concentration of 40 mM added to the agroinfiltration liquid, once, vacuum infiltration, 25° C., seven days) | gangrene induced by the substance ([5]; Example 3: concentration of 80 mM or higher (80, 100, 200 mM) added to the agroinfiltration liquid) | gangrene of the plant ([5]; Example 4: added to the agroinfiltration liquid (0-40 mM), once) | expression of Cryj1 protein [6] | expression level of the GFP protein [7, 8] | expression level of the Rubisco large subunit [7, 8] | GFP protein expression level ([7]; Example 2: 200 mM spray, 25° C., three, five and seven days after agroinfiltration) | cell death induced by transient protein expression ([1]; Example 5: spray 30-300 mM once every two days, 18° C., seven days) | state of the leaves ([1]; Example 5: spray, concentration of 100 mM or higher, once every two days, 18° C., seven days)
1 | O=C1O[C@H]([C@@H](O)CO)C([O-])=C1O.[Na+] [sodium ascorbate, sodium L-ascorbate] | gangrene was inhibited | tendency of gangrene suppression | tendency of gangrene reduction | expression of the hFbxw7 protein was observed | increase in expression level of the PLP-GFP protein | increase in expression level of the hCu1 protein | peak in the expression level of the hCu1 protein was observed | expression of the hCu1 protein was maintained even seven days after agroinfiltration | peak in the expression level of the hCu1 protein was observed three days after agroinfiltration | expression of the hCu1 protein similar to a case where a 200 mM aqueous solution of sodium ascorbate was sprayed | gangrene possibly caused by osmotic stress was induced | reduce gangrene of the plant | expression of Cryj1 protein was observed | increase in expression level of the GFP protein | increase in expression level of the Rubisco large subunit | GFP protein expression level sustenance |  | 
2 | O=C([O-])CC(O)(CC(=O)[O-])C(=O)[O-].[Na+].[Na+].[Na+] [sodium citrate, reference compound] |  |  |  |  |  |  |  |  |  |  |  |  |  |  |  |  | cannot inhibit cell death induced by transient protein expression | leaves were in a wilted state
